Data as given in US20260209256A1, “PHOSPHINE OXIDE-BASED PHOTOINITIATORS” (Arkema France, priority 2022, published 2026).

Assays:
[1] = Curing experiments: belt cure under LED lamp at 395 nm; details: LED 395 nm, 50 μm film
Procedure: Testing Protocol: Formulations were prepared by combining all materials in the given proportions and then stirring at 30-40° C. until the samples were fully homogeneous; the formulations were then allowed to cool to 20° C. All components remained fully dissolved in the resin formulations throughout these experiments. For all experiments, the formulations were cured on Leneta Form 3N-31 gloss finish paper at 50 μm film thickness using a belt-cure instrument; the films were prepared using a K-bar. All films were then cured under an LED lamp at 395 nm at a belt speed of 10 m/min. The cure speed for each formulation was calculated from the number of passes under each lamp required to give complete surface cure (determined when light scratching of the surface of the film no longer left a mark) and depth cure (determined using the ‘thumb-twist’ test, where no visible mark is made when a thumb is pressed down firmly onto the coating with a twisting motion), and from the belt speed; the calculated cure speed (in m/min) is given in Tables 1A-1B as an average of 3 runs. Where cure speed was less than 0.3 m/min, the result was recorded as ‘No cure’.

[2] = LED-DSC test of 3D printing curable compositions
Procedure: A photo differential scanning calorimetry (DSC) with a customized 405 nm LED lamp setup was used. All photopolymerization rate measurement were performed using a Q2000 DSC unit from TA Instruments. A lamp holder for the DSC unit can be customized and printed from Arkema N3xtDimention® engineered resin N3D-TOUGH784 in order to ensure precisely fit of a 405 nm lamp AccuCure ULM-2-405 from Digital Light Labs. The LED light was automatically triggered by connecting the “Event” outlet of the DSC unit to an Accure Photo Rheometer Ultraviolet Illumination & Measurement System. LED light exposure can be programed by using “Event” on or off from Photo DSC software, but the intensity of light can be preset from the Accure Photo Rheometer Ultraviolet Illumination & Measurement System. For measurement, approximate 10 mg liquid sample was placed at the center of a T130522 DSC Tzero pan, cured by exposing it to 50 mW/cm^2 of 405 nm LED light for 0.3 minutes under a 50 mL/min N2 flow rate and 40° C. The resulting heat flow (W/g) curve was collected to analyze maximum heat flow peak value and maximum peak time, and listed in Table 3A.

[3] = UV PhotoDSC of nail gel top coat compositions
Procedure: Photo Differential Scanning Calorimetry (PhotoDSC) was used to measure the cure speed, heat generation during cure and heat flow measurements for the UV curable top coat compositions containing TPO, TPO-L and Photoinitiator 9 as shown in Table 2C below. PhotoDSC was measured using a TA instruments Q2000 DSC equipped with an EFOS A4000 Acticure UVNisible light curing system containing a 100 W Mercury lamp light source. The UV-light intensity was measured out of the sample window using an EIT UV power puck II radiometer prior to the experiment. Sample preparation for PhotoDSC occurred as follows: A Tzero aluminum reference pan and a Tzero aluminum sample pan were weighed. One drop of formulation (about 5-15 milligrams) was placed at the center of the sample pan and the mass was recorded. The two pans were placed in the DSC apparatus. The system was stabilized at 25° C. for 30 seconds under a continuous stream of nitrogen. An isothermal experiment was initiated and sample and reference pan were flooded with UVNisible light (320 to 450 nm, 190-210 mJ/cm^2) for two minutes. An exothermic peak, due to crosslinking, is recorded during the experiment. The cure speed is measured by determining the time it takes to reach the peak max while the lamp is turned on. The area under the peak is recorded as the heat flow value (J/g). The max temperature during cure is recorded as the temperature shown at the maximum peak during cure.

[4] = Stability by LED-FTIR analysis at 405 nm (accelerated ageing); format: physicochemical; details: photoinitiator or formulation aged at 60° C. for 1 week, 10 mW, dry air, FIG. 6A/6B
Procedure: The cure speed of aged samples comprising Photoinitiator 11 vs Speedcure TPO was acquired in experimental formulations using LED-FTIR analysis. The photoinitiator was aged at 60° C. for 1 week, then made into formulation and directly compared to ageing the photoinitiator in formulation at 60° C. for 1 week.
LED FT-IR Analysis was conducted on a ThermoScientific Nicolet iS50 Ft-IR Spectrometer with a standard DLaTGS detector 2. A film applicator was used to spread the applied sample into a film of 3 mils thickness. For analysis all the spectra are normalized by using the 1727 cm^−1 (—C═O stretch) peak as reference. For acrylic monomers, the decrease in peak height of C═C peak at 1407 cm^−1 was used for measuring conversion versus time The degree of conversion of the monomers was calculated by measuring the peak height. The stability results for the formulations comprising Speedcure TPO are shown in FIG. 6A and stability the results for the formulations comprising Photoinitiator 11 are shown in FIG. 6B.

[5] = FTIR test: acrylate conversion; details: FIG. 2A
Procedure: A Fourier Transform Infrared (FTIR) with an Attenuated Total Reflection (ATR) setup was used. All polymerization rate measurements were performed using Nicolet iS50 FT-IR Spectrometer from Thermo Scientific, equipped with a standard DLaTGS detector. A lamp holder for the ART platform of FTIR unit can be customized and printed from Arkema N3xtDimention® engineered resin N3D-TOUGH784 in order to ensure precisely fit of a 405 nm lamp AccuCure ULM-2-405 from Digital Light Labs. On the bottom of this lamp holder, a dry air channel is built in to allow air uniformly blowing over sample surface, the gas flow rate can be controlled over a rotameter. The LED light was manually triggered by Ultraviolet illumination & Measurement System. […] Measurements of acrylate conversion were taken at the height under the reference peak around 1720 cm^−1; the acrylate peak at approximately 1407 cm^−1 was also measured. Peak height was determined using the baseline technique where a baseline is chosen to be the two lowest points between 600 cm^−1 and 1800 cm^−1. The height under the peak and above the baseline was then determined. […]
The ratio of the acrylate height to the reference peak height were determined for both the liquid and the cured samples. Degree of cure or conversion, expressed as percentage reacted acrylate, was calculated from the equation below: […]

[6] = Stability in inkjet formulations, mercury curing; format: physicochemical; details: cyan ink, same phosphine oxide w/w %, 6 μm film; FIG. 7A
Procedure: Resins and photoinitiators were mixed at the target weight ratio before gently stirring using magnetic stirrers at 30-40° C. for 3 hours. Solubility was checked by eye to confirm full dissolution. Curing results at target film weight, were checked by lightly scratching for surface curing and compressed thumb twist for depth curing. Average curing speed was calculated using the belt speed divided by the passing number recorded when full cured resin was achieved. For practical purposes, curing speed less than 0.3 m/min was categorised as “No cure”. Duplicate curing was performed for the same formulation, average curing speed was used for final comparisons.
Cure speed of samples was checked at T=0, then samples were aged in an oven at 60° C. for 2 weeks before reassessing cure speed. Comparison of the initial cure speed vs the cure speed of aged samples was directly compared. Lamp system: the mercury lamp was at an intensity of 50%, with belt speed 10 m/min The LED lamp was set at 395 nm, with a lamp intensity of 70%, at belt speed 20 m/min

[7] = Stability in inkjet formulations, LED curing 395 nm; format: physicochemical; details: cyan ink, 6 μm film; FIG. 7B
Procedure: Resins and photoinitiators were mixed at the target weight ratio before gently stirring using magnetic stirrers at 30-40° C. for 3 hours. Solubility was checked by eye to confirm full dissolution. Curing results at target film weight, were checked by lightly scratching for surface curing and compressed thumb twist for depth curing. Average curing speed was calculated using the belt speed divided by the passing number recorded when full cured resin was achieved. For practical purposes, curing speed less than 0.3 m/min was categorised as “No cure”. Duplicate curing was performed for the same formulation, average curing speed was used for final comparisons. […] Comparison of the initial cure speed vs the cure speed of aged samples was directly compared. […] Film weights were 6 μm.

[8] = 8% w/w photoinitiator in 7:3 w/w bisphenol A ethoxylate diacrylate/tripropylene glycol diacrylate, average of 3 runs
[9] = same active phosphine oxide concentration (given Wt %) in 7:3 w/w bisphenol A ethoxylate diacrylate/tripropylene glycol diacrylate
[10] = compositions containing 2 wt % photoinitiator
[11] = compositions containing 4 wt % photoinitiator

SMILES | Cure speed (m/min) Depth cure [1, 8] [m/min] | Cure speed (m/min) Surface cure [1, 8] | Cure speed (m/min) Depth cure [1, 9] [m/min] | Cure speed (m/min) Surface cure [1, 9] | cure speed in formulations at the same equivalent of phosphine oxide [2] | time to peak max [3, 10] [min] | time to peak max [3, 11] [min] | stability: cure speed after accelerated ageing [4] | cure speed in formulations at the same equivalent of phosphine oxide [5] | initial curing performance under mercury lamp [6] | initial curing under 395 nm LED [7]
CCCCNC(=O)C(CC(=O)c1c(C)cc(C)c(C(=O)P(=O)(c2ccccc2)c2ccccc2)c1C)N1CCOCC1 (single isomer, unassigned) [Photoinitiator 3] | 3.9 | No cure (Where cure speed was less than 0.3 m/min, the result was recorded as ‘No cure’) | 5.0 | 1.7 m/min | – | – | – | – | – | – | –
CCCCNC(=O)C(CC(=O)c1c(C)cc(C)c(C(=O)P(=O)(c2ccccc2)c2ccccc2)c1C)N1CCN(C)CC1 (single isomer, unassigned) [Photoinitiator 4] | 5.0 | No cure (Where cure speed was less than 0.3 m/min, the result was recorded as ‘No cure’) | 5.0 | 1.6 m/min | – | – | – | – | – | – | –
CCCCNC(=O)/C=C\C(=O)c1c(C)cc(C)c(C(=O)P(=O)(c2ccccc2)c2ccccc2)c1C [Precursor 3] | 1.8 | No cure (Where cure speed was less than 0.3 m/min, the result was recorded as ‘No cure’) | 1.8 | No cure (Where cure speed was less than 0.3 m/min, the result was recorded as ‘No cure’) | – | – | – | – | – | – | –
Cc1cc(C)c(C(=O)P(=O)(c2ccccc2)c2ccccc2)c(C)c1 [SpeedCure TPO, 2,4,6-trimethylbenzoyl diphenyl phosphine oxide] | 5.6 | 2.2 m/min | 5.6 | 2.2 m/min | Precursor 4<Photoinitiator 6<TPO | 0.5 | 0.06 | larger reduction in cure speed than Photoinitiator 11 | Precursor 4<Photoinitiator 6<TPO | – | –
Cc1cc(C)c(C(=O)P(=O)(C(=O)c2c(C)cc(C)cc2C)c2ccccc2)c(C)c1 [Speedcure BPO, bis-(2,4,6-trimethylbenzoyl)phenyl phosphine oxide] | – | – | – | – | – | – | – | – | – | closely followed | best curing results
CCOP(=O)(C(=O)c1c(C)cc(C)cc1C)c1ccccc1 (stereo not shown) [Speedcure TPO-L, Ethyl (2,4,6-trimethylbenzoyl)phenyl phosphinate] | – | – | – | – | – | 0.06 | 0.06 | – | – | – | –
